According to US9108959B2, “Process for the preparation of an orexin receptor antagonist” (Merck Sharp & Dohme Corp., priority 2011, dated 2015):

Experiment: relative thermodynamic stability of crystalline forms (slurry of equal amounts of the two forms in EtOH at various temperatures)
Type: physicochemical
Settings: for temperatures at which the form is the thermodynamically most stable crystalline form: enantiotropically related forms
Description: Anhydrous form I and Anhydrous form II are enatiotropically related. […] The transition temperature between anhydrous form I and anhydrous form II was determined by slurring a mixture containing equal amounts of the two forms in EtOH at various temperatures. The transition temperature between anhydrous form I and anhydrous form II is between 35 and 40° C. […] Anhydrous Form II can be synthesized using a crystallization process that is more efficient and results in improved particle size and morphology control relative to anhydrous form I. Anhydrous form II has better crystallinity, better filtration properties and gives better purity rejection than anhydrous form I. Anhydrous form II has better processability for preparing formulations than Anhydrous form I.

SMILES	stability of crystalline phase (at 25° C.)	temperatures at which the form is the thermodynamically most stable crystalline form
Cc1ccc(-n2nccn2)c(C(=O)N2CCN(c3nc4cc(Cl)ccc4o3)CC[C@H]2C)c1 [Anhydrous form I, [(7R)-4-(5-chloro-1,3-benzoxazol-2-yl)-7-methyl-1,4-diazepan-1-yl][5-methyl-2-(2H-1,2,3-triazol-2-yl)phenyl]methanone]	most stable crystalline phase	≤ 35 °C
Cc1ccc(-n2nccn2)c(C(=O)N2CCN(c3nc4cc(Cl)ccc4o3)CC[C@H]2C)c1 [Anhydrous form II, [(7R)-4-(5-chloro-1,3-benzoxazol-2-yl)-7-methyl-1,4-diazepan-1-yl][5-methyl-2-(2H-1,2,3-triazol-2-yl)phenyl]methanone]	–	≥ 40 °C
